Assay [1] has as its system schistosomes (Schistosoma mansoni). Description: Number of schistosomes in vivo (Experimental Example 1). The note with it: infected BALB/c mice, oral, administered on Days 14 and 15 after the infection, counted on Week 6 after the infection. As for the experimental part:
100 μl of the antischistosomal agent of the present invention were orally administered to mice (BALB/c mice, 5-week-old) infected with schistosomes (Schistosoma mansoni) in accordance with a drug dosage regimen of FIG. 2. As a control, 100 μl of olive oil was administered. On Week 6 after the infection, the mice were sacrificed with an overdose of anesthetic, and the number of schistosomes recovered was counted under a microscope.

Assay [2] shares this test system. As to the kind of experiment: Number of schistosomes and number of eggs produced per adult female schistosome (Experimental Example 2). The format is in vivo. The conditions noted are these: infected BALB/c mice, oral, measured on Week 9. As for the experimental part:
100 μl of the antischistosomal agent of the present invention were orally administered to mice (BALB/c mice, 5-week-old) infected with schistosomes (Schistosoma mansoni) in accordance with a drug dosage regimen of FIG. 4. As a control, 100 μl of olive oil was administered. On Week 9 after the infection, the mice were sacrificed with an overdose of anesthetic, and the number of schistosomes recovered and the number of eggs produced per adult female schistosome were measured. The number of schistosomes was measured in the same manner as in Experimental Example 1, and the number of eggs produced was also counted under a microscope.

Assay [3] shares this test system. As to the kind of experiment: Macroscopic findings on liver lesions in schistosome-infected mice (Experimental Example 3). In kind it is in vivo. The note with it: infected BALB/c mice, viscera observed macroscopically.
For another assay, the system named is immature schistosomes. The note with it: as reported in the literature (Non Patent Literature 1); cited from earlier work.
[4] abbreviates: administration on each of Weeks 5 to 7 after the infection.

Each structure is given as a SMILES string.

For the compound `C1CCCCCC2(CCCCC1)OOCCCOO2` [antischistosomal agent, 1,2,6,7-tetraoxaspiro[7.11]nonadecane], the “number of schistosomes reduced as compared to the olive oil administration group” value in assay [1] is listed as 86%. For the same compound, the “number of eggs produced reduced” value in assay [2] (administration on Week 5 only after the infection) stood at 87%. Besides, in assay [2] (setting [4]), the “number of eggs produced per adult female schistosome reduced as compared to the olive oil administration group” value is given as 98% and the “number of schistosomes as compared to the olive oil administration group” value was “not significantly reduced”. The “liver lesions due to eggs of schistosomes (macroscopic)” value in assay [3] (administered on Week 5 after the infection) is recorded as “few liver lesions”. In addition, in assay [3], the enlargement of spleen result is listed as “inhibited”.

With `O=C(C1CCCCC1)N1CC(=O)N2CCc3ccccc3C2C1` (stereo not shown) [praziquantel], the “effect on schistosomes at the immature stage” value with immature schistosomes is listed as “not effective”.
